Earlier results on one compound are cited in US20240261254A1, “DIHYDROMYRICETIN NANOEMULSION FORMULATIONS AND METHODS FOR FORMING THEM” (Cheers Health, Inc., priority 2018, published 2024).

With `O=C1c2c(O)cc(O)cc2O[C@H](c2cc(O)c(O)c(O)c2)[C@H]1O` [DHM, dihydromyricetin], the BCS class result (low solubility and permeability) was “BCS class IV”. For the setting “reference [39]”, the oral bioavailability entry was “less than 5%”.
